Holding throughout (assay): growth of human tumour cells (NCI), 48 h
The subject of assay [1] is HCC-2998 colon.
Assay [2] relates to HCT-15 colon.
Assay [3] concerns HT29 colon.
For assay [4], the system named is NCI-H226 lung.
Assay [5] deals with NCI-H460 lung.
Assay [6] concerns OVCAR-5 ovarian.
Assay [7] concerns SN12C renal.
In assay [8] the test system is SW-620 colon.
Assay [9] has as its system UO-31 renal.
The test system of assay [10] is HOP-62 NSCLC.

Where “and” joins values, the source holds several entries; their conditions need not be identical. Equal entries are not always repeated.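 96-well plates; 48 h exposure; 5 concentrations. Endpoints by linear interpolation between flanking doses. Not reached: highest tested concentration assigned. Here, GI50 denotes the concentration required for 50% inhibition of growth. The concentration for full growth arrest is given as TGI.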

Take `CO/N=C(\C)c1ccc(Nc2cc(-c3ccccc3)nc3ccc(OC)cc23)cc1`: the GI50 in assay [1] is 3.16 µM; in [2] it was 3.17 µM; in [3] it was 5.33 µM; in assay [4] it was 2.25 µM; in [5], 6.69 µM; in assay [6], 5.2 µM. Further, the figures for the GI50 in assay [7], in assay [8] and in [9] were 1.7 µM, 3.4 µM and 5.19 µM, respectively. Besides, the TGI in assay [1] was 15.9 µM; in assay [2] it was 11 µM; in assay [3], more than 100 µM; in [4], 5.63 µM; in assay [5], more than 100 µM; in [6] it was 40.3 µM. The TGI was 4.11 µM in assay [7], 11.9 µM in assay [8] and more than 100 µM in [9].

On to `C/C(=N\NS(=O)(=O)c1ccc(C)cc1)P(=O)(O)O`, for which the TGI in assay [2], in assay [10], in [3], in [4], in assay [5] and in assay [6] was more than 100 µM in each case. Further, the TGI in assay [7], in assay [8] and in [9] was more than 100 µM each time.

Turning to `Cc1cccc(C)c1NC(=O)C1C(=O)N(c2c(C)cccc2C)C(=O)/C1=N\N` (configuration not stated), the TGI in assay [1], in assay [2], in assay [10], in assay [3], in assay [4] and in assay [6] was more than 100 µM throughout. For the same compound, the TGI in assay [7], in assay [8] and in assay [9] was more than 100 µM in each case.

`CSc1nc(NC2OC(COC(C)=O)C(OC(C)=O)C(OC(C)=O)C2OC(C)=O)c2c(n1)OCC2=O` (configuration not stated): the TGI in [2], in assay [10], in assay [3], in assay [4], in assay [5] and in assay [6] was more than 100 µM in each case. Besides, the TGI in [7], in assay [8] and in assay [9] was more than 100 µM each time.

For the compound `COC(=O)c1cc(O)c2cc3c(cc2c1-c1cc(OC)c(OC)c(OC)c1)OCO3`, the GI50 in [1] is 6.85 µM; in [2] it was 0.738 µM; in assay [10], 1.79 µM; in [4], 5.12 µM; in [5], 0.686 µM; in assay [6], 50.2 µM. Moreover, the GI50 in assay [8] was 0.496 µM; in assay [9], 4.92 µM. Further, the TGI in assay [1] was more than 100 µM; in assay [2], more than 100 µM; in [10] it was 18.4 µM; in assay [4], more than 100 µM; in [5], more than 100 µM; in assay [6], more than 100 µM. The TGI in [8] and in assay [9] was more than 100 µM throughout.

Turning to `Cn1cnc([N+](=O)[O-])c1Sc1nccn1-c1cccc2ccccc12`, the TGI in assay [1] was more than 100 µM; in assay [10], more than 100 µM; in assay [3], 88.1 µM; in assay [4], 59.6 µM; in assay [5], 73.1 µM; in assay [6], 76.1 µM. Further, the TGI in [7], in assay [8] and in assay [9] was more than 100 µM throughout.

`NCC1OC(n2cnc3c(N)ncnc32)CC1O` (configuration not stated): the TGI in assay [2], in assay [10], in assay [3], in assay [4], in assay [5] and in assay [6] was more than 100 µM in each case. For the same compound, the TGI in [7], in assay [8] and in [9] was more than 100 µM in each case.

`COC(=O)C(C(=O)OC)C1CCCC(=O)C1` (configuration not stated): the TGI in assay [1], in assay [2], in assay [10], in [3], in assay [5] and in assay [6] was more than 100 µM throughout. For the same compound, the TGI in assay [7], in [8] and in [9] was more than 100 µM each time.

`C[C@]12CC/C(=N\O)C=C1CC[C@@H]1C2CC[C@@]2(C)C1CC[C@@H]2OC1CCCCO1` (some centres not stated): the TGI in [1] is 29.5 µM; in [2], 43.2 µM; in assay [10] it was more than 100 µM; in [3], 28.8 µM; in assay [5] it was 45.7 µM; in [6], 29 µM. The TGI in assay [7] is more than 10 µM; in assay [8], 32 µM; in [9] it was 43.7 µM.

Consider `CCOC(=O)N1CCC(=O)C(CNC23CC4CC(CC(C4)C2)C3)C1` (configuration not stated), for which the TGI in assay [10] was more than 100 µM; in [3], 43.7 µM; in [4], more than 100 µM; in assay [5] it was more than 100 µM; in assay [6] it was more than 100 µM; in [7] it was more than 100 µM. Besides, the TGI in [8] is 39.5 µM; in assay [9], more than 100 µM.

For the compound `CC(C)(C)c1cc(-n2c(-c3ccc(Cl)cc3)nc3cc(C(=O)Nc4ccc(Cl)cc4)ccc32)n[nH]1`, the GI50 was 14.1 µM in assay [10]; more than 100 µM in assay [3]; 10.4 µM in [4]; 3.57 µM in [5]; more than 100 µM in assay [6]; 5.82 µM in [7]. Also, in [9], the GI50 was 2.69 µM. Besides, the TGI was 36.9 µM in assay [10]; more than 100 µM in assay [3]; more than 100 µM in assay [4]; more than 100 µM in assay [5]; more than 100 µM in assay [6]; more than 100 µM in [7]. The compound further returned a TGI in assay [9] of more than 100 µM.

Take `Oc1ccc(C(c2ccc(O)cc2)c2ccc(O)cc2)cc1`: the TGI in assay [1] was 40 µM; in assay [2] it was 55.3 µM; in assay [3] it was 41.6 µM; in [4] it was 67.3 µM; in [5] it was 46.3 µM; in assay [7], 43.9 µM. Moreover, the figures for the TGI in assay [8] and in assay [9] were 88.1 µM and 44.6 µM, respectively.

For the compound `C[n+]1c2cc(N)ccc2cc2ccc(N)cc21`, the GI50 in assay [1] was 925 nM [middle of 4 runs]; in assay [2], 2.41 µM [middle of 4 runs]; in assay [3] it was 1 µM [middle of 4 runs]; in assay [4] it was 882 nM [middle of 4 runs]; in [5] it was 460 nM [middle of 4 runs]; in [6], 1.1 µM [middle of 4 runs]. The GI50 in [7] is 701 nM [middle of 4 runs]; in assay [8], 198 nM [middle of 4 runs]. Besides, the TGI in assay [1] was 3.43 µM [middle of 4 runs]; in assay [2], 15.2 µM [middle of 4 runs]; in [10], 2.45 µM and 10.7 µM and 3.7 µM; in [3], 2.72 µM and 13.3 µM and 3.15 µM; in [4] it was 3.98 µM [middle of 4 runs]; in assay [7], 4.03 µM [middle of 4 runs].

As for `Nc1nnnn1CCO`, the TGI in assay [2], in assay [10], in assay [3], in assay [4], in assay [5] and in [6] was more than 100 µM each time. Besides, the TGI in assay [7], in [8] and in assay [9] was more than 100 µM in each case.

Take `COc1cc(C2SCC(=O)N2c2ncc(C)s2)cc(OC)c1OC` (configuration not stated): the GI50 in assay [2] was 16.3 µM; in [3], 23.3 µM; in assay [4] it was more than 50 µM; in [5] it was 25.7 µM; in [6], more than 50 µM; in assay [7], 13.3 µM. Also, the GI50 in [8] was 21.4 µM; in assay [9], more than 50 µM. Further, the TGI in [2], in assay [3], in [4], in [5], in [6] and in assay [7] was more than 50 µM throughout. The TGI in assay [8] and in [9] was more than 50 µM throughout.

For `O=C(Nc1ccc(Cl)c(Cl)c1)Nc1c(Oc2ccc(Cl)c(Cl)c2)ccc(Cl)c1S(=O)(=O)O`, the GI50 was 2.11 µM in [1]; 1.84 µM in assay [3]; 3.91 µM in assay [4]; 3.01 µM in assay [5]; 4.09 µM in assay [6]; 4.48 µM in assay [7]. For the same compound, the GI50 in assay [8] was 1.27 µM; in [9], 3.13 µM. Besides, the TGI in [1], in [3], in assay [4], in assay [5], in assay [6] and in assay [7] was more than 100 µM each time. In addition, the TGI in [8] and in assay [9] was more than 100 µM throughout.

Take `CCN(CC)c1ccc(C(O)C2=CC(=O)c3ccccc3C2=O)cc1` (configuration not stated): the GI50 in assay [1] is 1.92 µM; in assay [2], 3.03 µM; in [10] it was 2.03 µM; in assay [4], 1.93 µM; in assay [5], 10.8 µM; in assay [6] it was 1.94 µM. For the same compound, the results for the GI50 in assay [7], in assay [8] and in assay [9] were 1.38 µM, 0.802 µM and 2.12 µM, respectively. Moreover, the TGI in assay [1] is 3.43 µM; in assay [2] it was more than 32.1 µM; in [10], 4.33 µM; in assay [4], 4.63 µM; in [5], more than 32.4 µM; in [6], 3.66 µM. The results for the TGI in assay [7], in assay [8] and in assay [9] were 4.83 µM, more than 100 µM and 6.25 µM, respectively.

For `Cc1ccc(S(=O)(=O)NC2(C=O)CCCC3CCCCC32)cc1` (configuration not stated), the TGI in assay [1], in assay [2], in assay [10], in assay [4], in assay [5] and in assay [7] was more than 100 µM in each case. For the same compound, the TGI in assay [8] and in assay [9] was more than 100 µM each time.

In the case of `C/C(CC(=O)Nc1ccc(C)c(C)c1)=N\NC(N)=O`, the TGI in [1], in [10], in [3], in assay [4], in [5] and in [6] was more than 100 µM throughout. Further, the TGI in assay [8] and in [9] was more than 100 µM each time.

With `Cc1ccc(NC(=O)CC2Sc3ccccc3NC2=O)c(C)c1` (configuration not stated), the TGI was 27.3 µM in assay [1]; 34 µM in [10]; 33.5 µM in assay [4]; 32.4 µM in assay [5]; 73 µM in [6]; more than 100 µM in assay [7]. The TGI in assay [8] was 56 µM; in assay [9], 34.8 µM.

Consider `COC(=O)c1cccn1C(=O)n1cccc1`, for which the TGI in assay [1], in assay [10], in assay [3], in [4], in assay [5] and in [6] was more than 100 µM each time. Besides, the TGI in assay [7], in assay [8] and in [9] was more than 100 µM in each case.

Regarding `O=[P+](O)c1ccsc1`, the TGI in assay [2], in [10], in [3], in [5], in [7] and in [8] was more than 100 µM in each case. The compound further returned a TGI in [9] of more than 100 µM.

Consider `COc1cc(C(=O)N2CCN(c3ncnc4ccccc34)CC2)c(N)cc1OCc1ccccc1`, for which the GI50 in [1] is 16.6 µM; in assay [2], 16.7 µM; in assay [3] it was 12.7 µM; in [4], 16.1 µM; in [5], 11.3 µM; in assay [6] it was 15.3 µM. Besides, the GI50 in assay [7] was 18.3 µM; in assay [8], 11.4 µM; in [9], 12 µM. The TGI in [1] was found to be 30.3 µM; in assay [2] it was 31 µM; in [3] it was 27.4 µM; in [4], 33.3 µM; in assay [5], 26.1 µM; in assay [6] it was 31.5 µM. In addition, the TGI was 32.3 µM in assay [7], 23.5 µM in assay [8] and 26.5 µM in assay [9].

Consider `Cc1cccc(C(C)(C)C)c1NC(=O)CC1C(=O)Nc2ccccc2S1(=O)=O` (configuration not stated), for which the TGI in [1] turned out to be 20.5 µM; in [2], 16.3 µM; in assay [3], 16.3 µM; in assay [4] it was 32.8 µM; in assay [5], 24.1 µM; in assay [6], 27 µM. Moreover, the TGI stood at 25.7 µM in assay [7], 22.1 µM in [8] and 23.3 µM in [9].

The record behind these values is PubChem BioAssay (NCI).
